Source: the OligoGym collection
HELM strings list units from the 5' end as sugar, base in round brackets, then linkage (d deoxyribose, r ribose, m 2'-O-methyl, p phosphodiester). Strings are as the collection lists them; they lack the last nucleoside at the 3' end of the tested compound. [moe] = 2'-O-(2-methoxyethyl) (MOE); [sp] = phosphorothioate linkage; [m5C] = 5-methylcytosine

Target: UBE3A-ATS
Test: mouse, dose not given
Conditions: ASO

RNA1{[moe](T)[sp].[moe](G)p.[moe](G)p.[moe](T)p.[moe]([m5C])p.[moe](A)[sp].d(T)[sp].d([m5C])[sp].d(T)[sp].d([m5C])[sp].d(G)[sp].d(G)[sp].d(G)[sp].d(T)[sp].[moe](A)p.[moe](T)[sp].[moe](A)}$$$$ (last 3' nucleoside missing)
3 h FOB score: 4.7 score 0-7

RNA1{[moe](T)[sp].[moe](G)p.[moe](G)p.[moe](T)p.[moe]([m5C])p.[moe](A)p.d(T)[sp].d([m5C])[sp].d(T)[sp].d([m5C])[sp].d(G)[sp].d(G)[sp].d(G)[sp].d(T)[sp].d(A)[sp].d(T)[sp].[moe](A)p.[moe](T)[sp].[moe](A)}$$$$ (last 3' nucleoside missing)
3 h FOB score: 6 score 0-7

RNA1{[moe](T)[sp].[moe](G)p.[moe](G)p.[moe](T)p.[moe]([m5C])p.d(A)[sp].d(T)[sp].d([m5C])[sp].d(T)[sp].d([m5C])[sp].d(G)[sp].d(G)[sp].d(G)[sp].d(T)[sp].d(A)[sp].[moe](T)p.[moe](A)p.[moe](T)[sp].[moe](A)}$$$$ (last 3' nucleoside missing)
3 h FOB score: 5.2 score 0-7

RNA1{[moe](T)[sp].[moe](G)p.[moe](G)p.[moe](T)p.d([m5C])[sp].d(A)[sp].d(T)[sp].d([m5C])[sp].d(T)[sp].d([m5C])[sp].d(G)[sp].d(G)[sp].d(G)[sp].d(T)[sp].[moe](A)p.[moe](T)p.[moe](A)p.[moe](T)[sp].[moe](A)}$$$$ (last 3' nucleoside missing)
3 h FOB score: 4 score 0-7

RNA1{[moe](T)[sp].[moe](G)p.[moe](G)p.[moe]([m5C])p.[moe](A)p.d(A)[sp].d(G)[sp].d(T)[sp].d(A)[sp].d(T)[sp].d(G)[sp].d([m5C])[sp].d(T)[sp].d(A)[sp].d(G)[sp].[moe](T)p.[moe]([m5C])p.[moe](A)[sp].[moe]([m5C])}$$$$ (last 3' nucleoside missing)
3 h FOB score: 2.3 score 0-7

RNA1{[moe](T)[sp].[moe](G)p.[moe](G)p.[moe]([m5C])p.[moe](T)p.d(T)[sp].d(T)[sp].d(A)[sp].d(T)[sp].d(A)[sp].d([m5C])[sp].d(T)[sp].d(T)[sp].d(T)[sp].d(A)[sp].[moe]([m5C])p.[moe]([m5C])p.[moe]([m5C])[sp].[moe](A)}$$$$ (last 3' nucleoside missing)
3 h FOB score: 0.7 score 0-7

RNA1{[moe](T)[sp].[moe](G)p.[moe](T)p.[moe](A)p.[moe](T)p.d([m5C])[sp].d(A)[sp].d(G)[sp].d(G)[sp].d([m5C])[sp].d(A)[sp].d(A)[sp].d([m5C])[sp].d(A)[sp].d(G)[sp].[moe](A)p.[moe](A)p.[moe](T)[sp].[moe]([m5C])}$$$$ (last 3' nucleoside missing)
3 h FOB score: 4.7 score 0-7

RNA1{[moe](T)[sp].[moe](G)p.[moe](T)p.[moe](A)p.[moe]([m5C])p.d(A)[sp].d(A)[sp].d(A)[sp].d([m5C])[sp].d(G)[sp].d(G)[sp].d(G)[sp].d([m5C])[sp].d(T)[sp].d(A)[sp].[moe](T)p.[moe](G)p.[moe](T)[sp].[moe](G)}$$$$ (last 3' nucleoside missing)
3 h FOB score: 7 score 0-7

RNA1{[moe](T)[sp].[moe](G)p.[moe](T)p.[moe](G)[sp].d([m5C])[sp].d(A)[sp].d(T)[sp].d(A)[sp].d([m5C])[sp].d([m5C])[sp].d([m5C])[sp].d(A)[sp].[moe](G)p.[moe](G)p.[moe](G)p.[moe](T)[sp].[moe](A)}$$$$ (last 3' nucleoside missing)
3 h FOB score: 1 score 0-7

RNA1{[moe](T)[sp].[moe](G)p.[moe](T)p.[moe](G)p.[moe](A)p.d(G)[sp].d(A)[sp].d(T)[sp].d(A)[sp].d(A)[sp].d(T)[sp].d(T)[sp].d([m5C])[sp].d(A)[sp].d(G)[sp].[moe](G)p.[moe](A)p.[moe](G)[sp].[moe](G)}$$$$ (last 3' nucleoside missing)
3 h FOB score: 5 score 0-7

RNA1{[moe](T)[sp].[moe](G)p.[moe](T)p.[moe](G)p.[moe](G)p.d(G)[sp].d([m5C])[sp].d([m5C])[sp].d(T)[sp].d([m5C])[sp].d(T)[sp].d(A)[sp].d(T)[sp].d(T)[sp].d(A)[sp].[moe](A)p.[moe](G)p.[moe](A)[sp].[moe](T)}$$$$ (last 3' nucleoside missing)
3 h FOB score: 1 score 0-7

RNA1{[moe](T)[sp].[moe](G)p.[moe](T)p.[moe](G)p.[moe](T)p.[moe](G)p.d(T)[sp].d(T)[sp].d(T)[sp].d(T)[sp].d(T)[sp].d([m5C])[sp].d([m5C])[sp].d(A)[sp].d(T)[sp].d(T)[sp].[moe](T)p.[moe](T)[sp].[moe](T)}$$$$ (last 3' nucleoside missing)
3 h FOB score: 0 score 0-7

RNA1{[moe](T)[sp].[moe](G)p.[moe](T)p.[moe](G)p.[moe](T)p.[moe](T)p.d(T)[sp].d(T)[sp].d(T)[sp].d([m5C])[sp].d([m5C])[sp].d(A)[sp].d(T)[sp].d(T)[sp].d(T)[sp].d(T)[sp].[moe](T)p.[moe]([m5C])[sp].[moe](T)}$$$$ (last 3' nucleoside missing)
3 h FOB score: 0 score 0-7

RNA1{[moe](T)[sp].[moe](G)p.[moe](T)p.[moe](G)p.[moe](T)p.d(G)[sp].d(T)[sp].d(T)[sp].d(T)[sp].d(T)[sp].d(T)[sp].d([m5C])[sp].d([m5C])[sp].d(A)[sp].d(T)[sp].[moe](T)p.[moe](T)p.[moe](T)[sp].[moe](T)}$$$$ (last 3' nucleoside missing)
3 h FOB score: 0 score 0-7

RNA1{[moe](T)[sp].[moe](G)p.[moe](T)p.[moe](G)p.[moe](T)p.d(T)[sp].d(T)[sp].d(T)[sp].d(T)[sp].d([m5C])[sp].d([m5C])[sp].d(A)[sp].d(T)[sp].d(T)[sp].d(T)[sp].[moe](T)p.[moe](T)p.[moe]([m5C])[sp].[moe](T)}$$$$ (last 3' nucleoside missing)
3 h FOB score: 0 score 0-7

RNA1{[moe](T)[sp].[moe](G)p.[moe](T)p.[moe](G)p.[moe]([m5C])[sp].d(A)[sp].d(T)[sp].d(A)[sp].d([m5C])[sp].d([m5C])[sp].d([m5C])[sp].d(A)[sp].d(G)[sp].[moe](G)p.[moe](G)p.[moe](T)[sp].[moe](A)}$$$$ (last 3' nucleoside missing)
3 h FOB score: 1 score 0-7

RNA1{[moe](T)[sp].[moe](G)p.[moe](T)p.[moe](G)p.[moe]([m5C])p.[moe](A)[sp].d(T)[sp].d(A)[sp].d([m5C])[sp].d([m5C])[sp].d([m5C])[sp].d(A)[sp].d(G)[sp].d(G)[sp].[moe](G)p.[moe](T)[sp].[moe](A)}$$$$ (last 3' nucleoside missing)
3 h FOB score: 1 score 0-7

RNA1{[moe](T)[sp].[moe](G)p.[moe](T)p.[moe](G)p.[moe]([m5C])p.[moe](A)p.d(T)[sp].d(A)[sp].d([m5C])[sp].d([m5C])[sp].d([m5C])[sp].d(A)[sp].d(G)[sp].d(G)[sp].d(G)[sp].d(T)[sp].[moe](A)p.[moe](G)[sp].[moe](G)}$$$$ (last 3' nucleoside missing)
3 h FOB score: 0 score 0-7

RNA1{[moe](T)[sp].[moe](G)p.[moe](T)p.[moe](G)p.[moe]([m5C])p.d(A)[sp].d(T)[sp].d(A)[sp].d([m5C])[sp].d([m5C])[sp].d([m5C])[sp].d(A)[sp].d(G)[sp].d(G)[sp].d(G)[sp].[moe](T)p.[moe](A)p.[moe](G)[sp].[moe](G)}$$$$ (last 3' nucleoside missing)
3 h FOB score: 3 score 0-7

RNA1{[moe](T)[sp].[moe](G)p.[moe](T)p.[moe](G)p.d(T)[sp].d(G)[sp].d(T)[sp].d(T)[sp].d(T)[sp].d(T)[sp].d(T)[sp].d([m5C])[sp].d([m5C])[sp].d(A)[sp].[moe](T)p.[moe](T)p.[moe](T)p.[moe](T)[sp].[moe](T)}$$$$ (last 3' nucleoside missing)
3 h FOB score: 1 score 0-7

RNA1{[moe](T)[sp].[moe](G)p.[moe](T)p.[moe](G)p.d(T)[sp].d(T)[sp].d(T)[sp].d(T)[sp].d(T)[sp].d([m5C])[sp].d([m5C])[sp].d(A)[sp].d(T)[sp].d(T)[sp].[moe](T)p.[moe](T)p.[moe](T)p.[moe]([m5C])[sp].[moe](T)}$$$$ (last 3' nucleoside missing)
3 h FOB score: 1 score 0-7

RNA1{[moe](T)[sp].[moe](G)p.[moe](T)p.[moe](G)p.d([m5C])[sp].d(A)[sp].d(T)[sp].d(A)[sp].d([m5C])[sp].d([m5C])[sp].d([m5C])[sp].d(A)[sp].d(G)[sp].d(G)[sp].[moe](G)p.[moe](T)p.[moe](A)p.[moe](G)[sp].[moe](G)}$$$$ (last 3' nucleoside missing)
3 h FOB score: 1 score 0-7

RNA1{[moe](T)[sp].[moe](G)p.[moe](T)p.[moe](T)p.[moe](G)p.d(T)[sp].d(A)[sp].d(T)[sp].d(G)[sp].d([m5C])[sp].d(A)[sp].d(G)[sp].d(G)[sp].d(T)[sp].d(T)[sp].[moe]([m5C])p.[moe](A)p.[moe](T)[sp].[moe]([m5C])}$$$$ (last 3' nucleoside missing)
3 h FOB score: 4.5 score 0-7

RNA1{[moe](T)[sp].[moe](G)p.[moe](T)p.[moe]([m5C])p.[moe](G)p.d(A)[sp].d(G)[sp].d(A)[sp].d(A)[sp].d([m5C])[sp].d(T)[sp].d([m5C])[sp].d(A)[sp].d(A)[sp].d(A)[sp].[moe](A)p.[moe](G)p.[moe](G)[sp].[moe](T)}$$$$ (last 3' nucleoside missing)
3 h FOB score: 4.5 score 0-7

RNA1{[moe](T)[sp].[moe](G)p.[moe](T)p.[moe]([m5C])p.[moe](T)p.d([m5C])[sp].d(T)[sp].d(A)[sp].d(A)[sp].d(T)[sp].d([m5C])[sp].d([m5C])[sp].d(T)[sp].d(A)[sp].d(T)[sp].[moe](T)p.[moe]([m5C])p.[moe]([m5C])[sp].[moe](A)}$$$$ (last 3' nucleoside missing)
3 h FOB score: 0 score 0-7

RNA1{[moe](T)[sp].[moe](G)p.[moe]([m5C])p.[moe](A)[sp].d(T)[sp].d(A)[sp].d([m5C])[sp].d([m5C])[sp].d([m5C])[sp].d(A)[sp].d(G)[sp].d(G)[sp].[moe](G)p.[moe](T)p.[moe](A)p.[moe](G)[sp].[moe](G)}$$$$ (last 3' nucleoside missing)
3 h FOB score: 0 score 0-7

RNA1{[moe](T)[sp].[moe](G)p.[moe]([m5C])p.[moe](A)p.[moe](T)[sp].d(A)[sp].d([m5C])[sp].d([m5C])[sp].d([m5C])[sp].d(A)[sp].d(G)[sp].d(G)[sp].d(G)[sp].[moe](T)p.[moe](A)p.[moe](G)[sp].[moe](G)}$$$$ (last 3' nucleoside missing)
3 h FOB score: 1 score 0-7
